{
  "source": "the supplement of paper PMC10307832",
  "experiment_in_all_cases": "relative viability (nuclei count vs DMSO), 5 days (fraction); higher = more cells survive",
  "key": {"Erlotinib + Palbociclib": {"compound": "C#Cc1cccc(Nc2ncnc3cc(OCCOC)c(OCCOC)cc23)c1 [Erlotinib] + CC(=O)c1c(C)c2cnc(Nc3ccc(N4CCNCC4)cn3)nc2n(C2CCCC2)c1=O [Palbociclib] (partner 0.5 µM)", "outline": "(§1)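 A single step with final 0.05% Triton X-100, 1% formaldehyde and 1 ug/ml Hoechst fixed the cells and stained nuclei 5 days after treatment. Lung cancer cell lines in 1536-well plates had been treated by pin tool the day after seeding with one drug alone or a fixed anchor-drug dose plus five library-drug doses (not always all listed) in √10 steps, and nuclei were counted on 4× images. Relative viability is the ratio of nuclei in treated wells to nuclei in vehicle wells, taken as the median of duplicate plates.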"}, "Erlotinib + Navitoclax": {"compound": "C#Cc1cccc(Nc2ncnc3cc(OCCOC)c(OCCOC)cc23)c1 [Erlotinib] + CC1(C)CCC(c2ccc(Cl)cc2)=C(CN2CCN(c3ccc(C(=O)NS(=O)(=O)c4ccc(N[C@H](CCN5CCOCC5)CSc5ccccc5)c(S(=O)(=O)C(F)(F)F)c4)cc3)CC2)C1 [Navitoclax] (partner 0.5 µM)", "outline": "as §1"}, "Erlotinib + Dasatinib": {"compound": "C#Cc1cccc(Nc2ncnc3cc(OCCOC)c(OCCOC)cc23)c1 [Erlotinib] + Cc1nc(Nc2ncc(C(=O)Nc3c(C)cccc3Cl)s2)cc(N2CCN(CCO)CC2)n1 [Dasatinib] (partner 0.075 µM)", "outline": "as §1"}, "AT9283 + Trametinib": {"compound": "O=C(Nc1c[nH]nc1-c1nc2ccc(CN3CCOCC3)cc2[nH]1)NC1CC1 [AT9283] + CC(=O)Nc1cccc(-n2c(=O)n(C3CC3)c(=O)c3c(Nc4ccc(I)cc4F)n(C)c(=O)c(C)c32)c1 [Trametinib] (partner 0.02 µM)", "outline": "as §1"}, "AT9283 + Crizotinib": {"compound": "O=C(Nc1c[nH]nc1-c1nc2ccc(CN3CCOCC3)cc2[nH]1)NC1CC1 [AT9283] + C[C@@H](Oc1cc(-c2cnn(C3CCNCC3)c2)cnc1N)c1c(Cl)ccc(F)c1Cl [Crizotinib] (partner 1 µM)", "outline": "as §1"}},
  "data": [
    {"cell line": "NCI-H441", "values": [
      {"measurement": "relative viability", "setting": "Erlotinib + Palbociclib; first compound 0.02 µM", "result": 0.196},
      {"measurement": "relative viability", "setting": "Erlotinib + Palbociclib; first compound 0.2 µM", "result": 0.212},
      {"measurement": "relative viability", "setting": "Erlotinib + Palbociclib; first compound 0.6325 µM", "result": 0.177},
      {"measurement": "relative viability", "setting": "Erlotinib + Palbociclib; first compound 2 µM", "result": 0.186},
      {"measurement": "relative viability", "setting": "Erlotinib + Navitoclax; first compound 0.02 µM", "result": 1.03},
      {"measurement": "relative viability", "setting": "Erlotinib + Navitoclax; first compound 0.2 µM", "result": 0.805},
      {"measurement": "relative viability", "setting": "Erlotinib + Navitoclax; first compound 0.6325 µM", "result": 0.555},
      {"measurement": "relative viability", "setting": "Erlotinib + Navitoclax; first compound 2 µM", "result": 0.302},
      {"measurement": "relative viability", "setting": "Erlotinib + Dasatinib; first compound 0.02 µM", "result": 0.651},
      {"measurement": "relative viability", "setting": "Erlotinib + Dasatinib; first compound 0.2 µM", "result": 0.554},
      {"measurement": "relative viability", "setting": "Erlotinib + Dasatinib; first compound 0.6325 µM", "result": 0.508},
      {"measurement": "relative viability", "setting": "Erlotinib + Dasatinib; first compound 2 µM", "result": 0.61},
      {"measurement": "relative viability", "setting": "AT9283 + Trametinib; first compound 0.003 µM", "result": 0.259},
      {"measurement": "relative viability", "setting": "AT9283 + Trametinib; first compound 0.03 µM", "result": 0.439},
      {"measurement": "relative viability", "setting": "AT9283 + Trametinib; first compound 0.09487 µM", "result": 0.423},
      {"measurement": "relative viability", "setting": "AT9283 + Trametinib; first compound 0.3 µM", "result": 0.22},
      {"measurement": "relative viability", "setting": "AT9283 + Crizotinib; first compound 0.003 µM", "result": 0.614},
      {"measurement": "relative viability", "setting": "AT9283 + Crizotinib; first compound 0.03 µM", "result": 0.635},
      {"measurement": "relative viability", "setting": "AT9283 + Crizotinib; first compound 0.09487 µM", "result": 0.35},
      {"measurement": "relative viability", "setting": "AT9283 + Crizotinib; first compound 0.3 µM", "result": 0.234}
    ]}
  ]
}
